In patent US8546414B2, “Ion channel modulators and methods of use” (Vertex Pharmaceuticals Incorporated, priority 2004, dated 2013):

Assays:
Type in all cases: cell-based
NaV1.3 = molecular target: T1, NaV1.3 (Homo sapiens, UniProt Q9NY46); experiment: VIPR optical membrane potential assay with electrical stimulation, NaV1.3; details: Table 9, NaV 1.3 receptors
T1 construct: expressed in transfected cells; host or cells: HEK293
Method in brief: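 HEK293 cells stably expressing NaV1.3, stained with CC2-DMPE (10 μM final) then DiSBAC2(3) with ABSC1, 30 min each at RT; compounds added with oxonol. Electrical stimulation for 3 s; 460/580 nm background-subtracted emission ratio Rf/Ri, normalised to tetracaine (positive) and untreated (negative) controls.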

CaV2.2 = molecular target: T2, CaV2.2 (Homo sapiens, UniProt Q00975); experiment: VIPR optical membrane potential assay with electrical stimulation, CaV2.2; details: Table 9, CaV 2.2 receptors
T2 construct: expressed in transfected cells; host or cells: HEK293
T2 sequence (Q00975 whole entry): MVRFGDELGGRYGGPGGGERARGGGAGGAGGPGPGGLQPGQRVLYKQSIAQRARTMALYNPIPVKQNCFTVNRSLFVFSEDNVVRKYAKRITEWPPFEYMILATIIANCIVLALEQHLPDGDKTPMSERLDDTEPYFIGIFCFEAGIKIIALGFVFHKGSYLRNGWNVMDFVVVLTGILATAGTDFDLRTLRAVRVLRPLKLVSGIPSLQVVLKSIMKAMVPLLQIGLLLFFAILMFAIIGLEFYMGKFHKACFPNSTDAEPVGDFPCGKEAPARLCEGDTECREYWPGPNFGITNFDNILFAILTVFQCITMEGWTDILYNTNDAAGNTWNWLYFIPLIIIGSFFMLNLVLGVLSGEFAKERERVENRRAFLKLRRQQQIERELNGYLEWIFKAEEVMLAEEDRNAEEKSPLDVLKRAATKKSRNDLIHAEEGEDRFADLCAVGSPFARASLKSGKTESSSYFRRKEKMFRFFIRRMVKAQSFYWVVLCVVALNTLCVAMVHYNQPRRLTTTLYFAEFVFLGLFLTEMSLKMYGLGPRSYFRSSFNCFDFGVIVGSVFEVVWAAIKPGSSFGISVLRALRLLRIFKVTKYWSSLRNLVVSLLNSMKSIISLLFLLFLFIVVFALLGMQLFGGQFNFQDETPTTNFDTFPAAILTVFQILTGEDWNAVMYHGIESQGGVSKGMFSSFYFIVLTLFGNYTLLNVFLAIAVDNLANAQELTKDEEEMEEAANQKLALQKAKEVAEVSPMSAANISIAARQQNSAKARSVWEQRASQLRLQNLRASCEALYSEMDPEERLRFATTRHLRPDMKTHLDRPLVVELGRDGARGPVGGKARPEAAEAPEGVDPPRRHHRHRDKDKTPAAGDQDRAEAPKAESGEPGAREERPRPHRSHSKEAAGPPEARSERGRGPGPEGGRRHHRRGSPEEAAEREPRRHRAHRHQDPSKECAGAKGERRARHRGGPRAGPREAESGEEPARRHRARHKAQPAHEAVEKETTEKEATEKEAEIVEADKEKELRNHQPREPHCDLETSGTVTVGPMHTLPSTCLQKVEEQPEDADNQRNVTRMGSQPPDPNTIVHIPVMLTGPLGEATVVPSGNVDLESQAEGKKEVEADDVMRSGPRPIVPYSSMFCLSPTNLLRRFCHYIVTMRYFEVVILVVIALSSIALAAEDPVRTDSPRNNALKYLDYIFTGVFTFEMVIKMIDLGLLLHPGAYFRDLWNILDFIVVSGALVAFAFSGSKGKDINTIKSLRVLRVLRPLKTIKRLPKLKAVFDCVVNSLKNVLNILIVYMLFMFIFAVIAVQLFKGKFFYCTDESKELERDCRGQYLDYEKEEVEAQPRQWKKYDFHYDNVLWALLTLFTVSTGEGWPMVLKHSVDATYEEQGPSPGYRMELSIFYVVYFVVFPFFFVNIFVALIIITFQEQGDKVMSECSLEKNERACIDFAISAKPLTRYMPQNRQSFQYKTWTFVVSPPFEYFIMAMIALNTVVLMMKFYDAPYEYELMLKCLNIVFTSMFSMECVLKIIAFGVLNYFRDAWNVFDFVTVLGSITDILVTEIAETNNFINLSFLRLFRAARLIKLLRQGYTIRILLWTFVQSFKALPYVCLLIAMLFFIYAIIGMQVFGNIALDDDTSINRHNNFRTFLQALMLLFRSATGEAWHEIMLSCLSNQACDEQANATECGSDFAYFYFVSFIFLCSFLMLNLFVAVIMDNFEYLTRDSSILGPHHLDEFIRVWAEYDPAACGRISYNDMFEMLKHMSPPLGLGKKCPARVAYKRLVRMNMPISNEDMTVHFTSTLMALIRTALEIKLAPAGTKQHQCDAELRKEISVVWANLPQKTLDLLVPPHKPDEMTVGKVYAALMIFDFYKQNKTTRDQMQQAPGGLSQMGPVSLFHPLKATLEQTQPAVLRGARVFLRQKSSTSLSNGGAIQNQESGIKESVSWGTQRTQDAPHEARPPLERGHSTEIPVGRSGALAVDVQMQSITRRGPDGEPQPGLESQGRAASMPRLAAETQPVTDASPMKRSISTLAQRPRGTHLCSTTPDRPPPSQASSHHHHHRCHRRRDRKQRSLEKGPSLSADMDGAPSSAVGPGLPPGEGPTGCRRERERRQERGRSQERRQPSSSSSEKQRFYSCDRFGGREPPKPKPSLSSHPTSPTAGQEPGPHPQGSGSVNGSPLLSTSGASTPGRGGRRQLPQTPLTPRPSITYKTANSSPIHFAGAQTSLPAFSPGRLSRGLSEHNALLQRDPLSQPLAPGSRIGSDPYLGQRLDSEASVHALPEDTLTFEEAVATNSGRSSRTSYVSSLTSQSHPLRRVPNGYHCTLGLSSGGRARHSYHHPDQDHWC
T2 sequence (P54284 whole entry partner): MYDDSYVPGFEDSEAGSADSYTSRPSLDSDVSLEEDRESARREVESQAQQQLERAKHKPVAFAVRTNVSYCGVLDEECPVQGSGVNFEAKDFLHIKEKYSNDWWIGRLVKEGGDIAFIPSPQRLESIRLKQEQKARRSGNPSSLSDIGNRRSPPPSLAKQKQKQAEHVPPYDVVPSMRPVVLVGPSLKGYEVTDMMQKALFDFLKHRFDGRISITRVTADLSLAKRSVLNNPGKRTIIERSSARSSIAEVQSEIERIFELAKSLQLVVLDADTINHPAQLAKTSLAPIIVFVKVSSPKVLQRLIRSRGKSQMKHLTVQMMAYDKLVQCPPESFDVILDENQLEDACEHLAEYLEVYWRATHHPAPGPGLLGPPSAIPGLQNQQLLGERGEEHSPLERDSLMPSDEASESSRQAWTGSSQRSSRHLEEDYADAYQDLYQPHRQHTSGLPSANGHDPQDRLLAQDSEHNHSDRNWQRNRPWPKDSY
T2 sequence (P54289 25-956 partner limits assumed): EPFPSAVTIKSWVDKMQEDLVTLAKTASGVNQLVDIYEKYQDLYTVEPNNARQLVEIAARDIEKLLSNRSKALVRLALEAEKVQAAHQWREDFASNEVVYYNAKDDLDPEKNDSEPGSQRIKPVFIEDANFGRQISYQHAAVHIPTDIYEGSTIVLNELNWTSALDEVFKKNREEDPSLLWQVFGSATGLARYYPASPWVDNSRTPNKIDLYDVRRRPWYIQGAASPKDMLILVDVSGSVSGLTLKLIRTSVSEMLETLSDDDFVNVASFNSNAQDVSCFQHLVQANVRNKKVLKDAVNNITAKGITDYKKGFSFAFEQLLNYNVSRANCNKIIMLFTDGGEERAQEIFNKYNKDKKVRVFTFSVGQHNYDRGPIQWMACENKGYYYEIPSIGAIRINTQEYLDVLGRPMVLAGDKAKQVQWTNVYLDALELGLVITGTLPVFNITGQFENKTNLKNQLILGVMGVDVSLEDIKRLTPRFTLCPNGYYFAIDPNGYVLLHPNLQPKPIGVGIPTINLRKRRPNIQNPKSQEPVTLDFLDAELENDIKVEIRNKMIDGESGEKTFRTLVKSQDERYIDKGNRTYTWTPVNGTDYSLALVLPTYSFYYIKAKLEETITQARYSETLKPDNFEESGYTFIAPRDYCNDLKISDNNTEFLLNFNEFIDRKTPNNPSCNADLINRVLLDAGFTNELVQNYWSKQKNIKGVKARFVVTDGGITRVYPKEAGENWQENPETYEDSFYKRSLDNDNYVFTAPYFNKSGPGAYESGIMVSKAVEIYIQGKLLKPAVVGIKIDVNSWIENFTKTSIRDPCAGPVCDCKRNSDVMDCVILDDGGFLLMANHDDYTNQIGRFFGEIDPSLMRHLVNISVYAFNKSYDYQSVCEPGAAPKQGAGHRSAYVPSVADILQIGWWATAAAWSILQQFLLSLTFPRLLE
T2 sequence (P54289 957-1103 partner limits assumed): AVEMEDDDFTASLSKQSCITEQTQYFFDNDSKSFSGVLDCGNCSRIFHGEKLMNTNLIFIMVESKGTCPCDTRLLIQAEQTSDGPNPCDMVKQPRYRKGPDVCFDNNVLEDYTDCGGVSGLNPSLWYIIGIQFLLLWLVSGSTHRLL
Method in brief: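 HEK293 cells stably expressing CaV2.2 stained with CC2-DMPE/DiSBAC2(3) voltage-sensitive dyes (10 μM final CC2-DMPE, 30 min, RT), then compound added and cells electrically stimulated for 3-5 s. Read-out: background-subtracted 460/580 nm emission ratio; response R=Rf/Ri (post- vs pre-stimulus ratio); antagonism seen as reduced response.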

NaV1.8 = NaV1.8 (Homo sapiens, UniProt Q9Y5Y9); experiment: VIPR optical membrane potential assay, NaV1.8 (other subtypes in an analogous mode); details: Table 9, NaV 1.8 receptors
Method in brief: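 Cells expressing the NaV subtype stained with coumarin and DiSBAC2(3) membrane-potential dyes, then incubated with test compound for 20-30 minutes. Depolarization evoked by sodium addback and read optically on VIPR; block measured as reduced membrane-potential response, with tetracaine as positive control.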

SMILES | IC50 (NaV1.3) [µM] | IC50 (CaV2.2) [µM] | IC50 (NaV1.8) [µM]
CC(C)N(C(=O)c1cnc(N2CCCCC2)nc1-c1ccccc1F)C1CCSC1 (stereo not drawn) [compound 149] | > 10 | > 10 | > 10
CC1Cc2ccccc2N1C(=O)c1cnc(N2CCOCC2)nc1-c1ccccc1F (stereo not drawn) [compound 150] | > 10 | > 10 | > 10
CC(C)N(Cc1ccccc1)C(=O)c1cnc(NCC(=O)O)nc1-c1ccccc1F [compound 153] | > 10 | > 10 | > 10
COc1cccc(N(C(=O)c2cnc(N3CCC4CCCCC4C3)nc2-c2ccccc2F)C2CCCC2)c1 (stereo not drawn) [compound 154] | > 10 | 2 to 10 | > 10
CC(C)N(C(=O)c1cnc(N2CCCCC2)nc1-c1ccccc1Cl)C1CCSC1 (stereo not drawn) [compound 155] | > 10 | 2 to 10 | > 10
COc1cccc(N(C(=O)c2cnc(N3CCCCC3)nc2-c2ccccc2F)C2CC2)c1 [compound 158] | > 10 | > 10 | > 10
COc1cccc(N(C(=O)c2cnc(N3CCOCC3)nc2-c2ccccc2F)C(C)C)c1 [compound 160] | > 10 | > 10 | > 10
Cc1cccc(CN(C(=O)c2cnc(N3CCOCC3)nc2-c2ccccc2F)C2CC2)c1 [compound 163] | > 10 | 2 to 10 | > 10
CC(C)N(Cc1ccccc1)C(=O)c1cnc(N2CCN(C)CC2)nc1-c1ccccc1F [compound 167] | > 10 | > 10 | > 10
CC(=O)Nc1ccc(-c2nc(N3CCOCC3)ncc2C(=O)N(Cc2ccccc2)C(C)C)cc1 [compound 168] | > 10 | > 10 | > 10
CC(C)Oc1ccc(-c2nc(N3CCOCC3)ncc2C(=O)N(Cc2ccccc2)C(C)C)cc1 [compound 170] | > 10 | > 10 | > 10
CC(C)N(C(=O)c1cnc(N2CCOCC2)nc1-c1ccccc1F)C1CCSC1 (stereo not drawn) [compound 172] | > 10 | > 10 | > 10
O=C(NC1CCC1)c1cnc(N2CCOCC2)nc1-c1ccccc1F [compound 174] | > 10 | > 10 | > 10
COc1cccc(N(C(=O)c2cnc(N3CCCCC3)nc2-c2ccccc2Cl)C(C)C)c1 [compound 175] | 2 to 10 | 2 to 10 | > 10
CN1CCN(c2ncc(C(=O)N(Cc3ccc(C(C)(C)C)cc3)C3CC3)c(-c3ccccc3F)n2)CC1 [compound 176] | > 10 | 2 to 10 | > 10
CC(C)N(Cc1ccccc1)C(=O)c1cnc(Nc2cccc(Cl)c2)nc1-c1ccccc1F [compound 177] | > 10 | > 10 | > 10
CC(C)N(C(=O)c1cnc(N2CCOCC2)nc1-c1ccccc1F)c1cccc([N+](=O)[O-])c1 [compound 178] | > 10 | > 10 | > 10
CN1CCN(c2ncc(C(=O)N(Cc3ccccc3)C3CCC3)c(-c3ccccc3F)n2)CC1 [compound 180] | 2 to 10 | 2 to 10 | > 10
CC(C)N(Cc1ccccc1)C(=O)c1cnc(Nc2ccc(F)cc2)nc1-c1ccccc1F [compound 181] | > 10 | > 10 | > 10
CC(C)N(C(=O)c1cnc(N2CCOCC2)nc1-c1ccccc1F)c1ccc2c(c1)OCO2 [compound 182] | > 10 | 2 to 10 | > 10
COc1cccc(N(C(=O)c2cnc(N3CCOCC3)nc2-c2ccccc2F)C2CC2)c1 [compound 183] | > 10 | > 10 | > 10
COc1ccc(CN(C(=O)c2cnc(N3CCC4CCCCC4C3)nc2-c2ccccc2F)C2CC2)cc1 (stereo not drawn) [compound 184] | > 10 | 2 to 10 | > 10
COc1ccc(N(C(=O)c2cnc(N3CCOCC3)nc2-c2ccccc2F)C(C)C)cc1 [compound 185] | > 10 | 2 to 10 | > 10
COc1cccc(CN(C(=O)c2c(C)nc(N3CCOCC3)nc2-c2ccccc2F)C(C)C)c1 [compound 186] | 2 to 10 | 2 to 10 | > 10
O=C(c1cnc(N2CCOCC2)nc1-c1ccccc1F)N1Cc2ccccc2C1 [compound 187] | > 10 | > 10 | > 10
COc1cccc(N(C(=O)c2cnc(N3CCC4CCCCC4C3)nc2-c2ccccc2F)C2CC2)c1 (stereo not drawn) [compound 189] | > 10 | 2 to 10 | > 10
COc1cccc(N(C(=O)c2cnc(N3CCOCC3)nc2-c2ccccc2F)C2CCC2)c1 [compound 190] | 2 to 10 | > 10 | > 10
O=C(c1cnc(N2CCOCC2)nc1-c1ccccc1F)N1CCCC(c2ccc(F)cc2)C1 (stereo not drawn) [compound 191] | > 10 | > 10 | > 10

Next, values leading:

IC50 (NaV1.3) [µM] | IC50 (CaV2.2) [µM] | IC50 (NaV1.8) [µM] | SMILES
2 to 10 | 2 to 10 | > 10 | CC(C)N(C(=O)c1cnc(N2CCC3CCCCC3C2)nc1-c1ccccc1F)c1ccc2c(c1)OCCO2 (stereo not drawn) [compound 151]
2 to 10 | 2 to 10 | > 10 | CC(C)N(C(=O)c1cnc(N2CCCCC2)nc1-c1ccccc1F)c1cccc(N(C)C)c1 [compound 152]
2 to 10 | < 2 | 2 to 10 | C=CCN(CC=C)c1ncc(C(=O)N(Cc2ccccc2)C(C)C)c(-c2ccccc2F)n1 [compound 156]
2 to 10 | 2 to 10 | > 10 | O=C(c1cnc(N2CCSCC2)nc1-c1ccccc1F)N(Cc1ccccc1)C1CCCC1 [compound 157]
2 to 10 | 2 to 10 | 2 to 10 | O=C(c1cnc(N2CCOCC2)nc1-c1ccccc1F)N(Cc1ccccc1)C1CCCC1 [compound 159]
2 to 10 | 2 to 10 | 2 to 10 | CC(C)(C)c1ccc(CN(C(=O)c2cnc(N3CCOCC3)nc2-c2ccccc2F)C2CC2)cc1 [compound 161]
< 2 | < 2 | > 10 | COc1cccc(CN(C(=O)c2cnc(N3CCC4CCCCC4C3)nc2-c2ccccc2F)C(C)C)c1 (stereo not drawn) [compound 162]
2 to 10 | 2 to 10 | 2 to 10 | COc1ccc(CN(C(=O)c2cnc(N3CCSCC3)nc2-c2ccccc2F)C2CC2)cc1 [compound 164]
2 to 10 | > 10 | > 10 | CC(C)N(C(=O)c1cnc(N2CCOCC2)nc1-c1ccccc1F)c1cccc(C(C)(C)C)c1 [compound 165]
2 to 10 | > 10 | > 10 | COc1cccc(N(C(=O)c2cnc(N3CCOCC3)nc2-c2ccccc2F)C2CCCC2)c1 [compound 169]
2 to 10 | 2 to 10 | > 10 | CC(C)N(C(=O)c1cnc(N2CCCCC2)nc1-c1ccccc1F)c1ccc2c(c1)OCCO2 [compound 171]
2 to 10 | < 2 | > 10 | CC(C)N(Cc1ccccc1)C(=O)c1cnc(NCCc2cccc(C(F)(F)F)c2)nc1-c1ccccc1F [compound 173]
< 2 | < 2 | 2 to 10 | COc1cccc(CN(C(=O)c2cnc(NC(C)c3ccccc3)nc2-c2ccccc2F)C(C)C)c1 (stereo not drawn) [compound 188]
